In brackets after ≈: the same amount, converted by molar mass. Each block holds one compound with its values, some of them ahead of it.
Legend:
Format in all cases: cell-based
Pseudomonas aeruginosa = assay: Serial dilution-tube method, MIC; details: Pseudomonas aeruginosa; brain heart infusion broth; read-out: Minimum Inhibitory Concentration
Serratia marcescens = assay: Serial dilution-tube method, MIC; details: Serratia marcescens; brain heart infusion broth; read-out: Minimum Inhibitory Concentration
[1] = system: Staphylococcus aureus (Antibiotic Resistant); assay: Standard disc-plate method, zone of inhibition; details: Staphylococcus aureus; 25 microgram discs; antibiotic resistant
Description: (§1) The utility of the various compounds as intermediates to other compounds of the present invention will be evident from the preceding discussion. The antibacterial activity of these compounds, reflecting their utility in the control of susceptible bacterial infections in man and animals, as animal feed additives for promotion of growth, or as preservatives of materials biodegraded by susceptible microorganisms, is best measured by the standard disc-plate method routinely employed in clinical laboratories for determining the sensitivity of microorganisms to antimicrobial substances. Sensitivity discs are prepared by dipping a standard 6.25 mm. paper disc into a solution of the compound to be tested (conc. 1 mg./ml.) in a volatile solvent (e.g. methylene chloride) and the disc dried, producing discs containing approximately 25 microg. of the compound. The discs are placed on the surface of agar growth media seeded with the test microorganism, previously plated into Petri dishes. The plates are incubated overnight at 35°-37° C. Activity of the test compound is reflected by a zone of inhibition of bacterial growth around the test disc. The diameter of this zone provides a quantitative measure of the activity of the antibacterial substance. The activity of various compounds of the present invention is summarized in Table I. For comparison, results obtained with 10 microg. discs of ampicillin and penicillin G are included as positive controls.

Bacillus subtilis = assay: Standard disc-plate method, zone of inhibition; details: Bacillus subtilis; 25 microgram discs
Description: as §1

Escherichia coli [2] = assay: Standard disc-plate method, zone of inhibition; details: Escherichia coli, 25 microgram discs
Description: as §1

Staphylococcus aureus [3] = assay: Standard disc-plate method, zone of inhibition; details: Staphylococcus aureus; 25 microgram discs
Description: as §1

Vibrio percolans = assay: Standard disc-plate method, zone of inhibition; details: Comamonas terrigena, 25 microgram discs
Description: as §1

Staphylococcus aureus [4] = assay: Serial dilution-tube method, MIC; details: Staphylococcus aureus; brain heart infusion broth; read-out: Minimum Inhibitory Concentration
Proteus morgani = assay: Serial dilution-tube method, MIC; details: brain heart infusion broth; read-out: Minimum Inhibitory Concentration
[5] = system: Staphylococcus aureus (Antibiotic Resistant); assay: Serial dilution-tube method, MIC; details: Staphylococcus aureus, brain heart infusion broth, read-out: Minimum Inhibitory Concentration
[6] = system: Escherichia coli (Antibiotic Resistant); assay: Serial dilution-tube method, MIC; details: Escherichia coli, brain heart infusion broth, read-out: Minimum Inhibitory Concentration
Escherichia coli [7] = assay: Serial dilution-tube method, MIC; parameters: key to synergistic effect with ampicillin: Shows a synergistic effect when tested 1:1 with ampicillin; details: for MIC: Escherichia coli, brain heart infusion broth, read-out: Minimum Inhibitory Concentration
Citrobacter diversus = assay: Serial dilution-tube method, MIC; details: Citrobacter koseri; brain heart infusion broth; read-out: Minimum Inhibitory Concentration
Klebsiella pneumoniae = assay: Serial dilution-tube method, MIC; details: Klebsiella pneumoniae; brain heart infusion broth; read-out: Minimum Inhibitory Concentration
Enterobacter cloacae = assay: Serial dilution-tube method, MIC; details: Enterobacter cloacae; brain heart infusion broth; read-out: Minimum Inhibitory Concentration

Structure (SMILES): CC(=O)OC1C(C)C(C(=O)O)N2C(=O)CC12 (stereo not drawn) [H H H CH3 H OAc I, 1-Acetoxy-2-methylcarbapenam-3-carboxylic Acid]
MIC (Pseudomonas aeruginosa): > 200 µg/mL
MIC (Serratia marcescens): > 200 µg/mL
zone of inhibition at 25 µg/disc [1]: 0 mm
zone of inhibition at 25 µg/disc (Bacillus subtilis): 12 mm
zone of inhibition at 25 µg/disc (Staphylococcus aureus [3]): 0 mm
MIC (Staphylococcus aureus [4]): > 200 µg/mL
MIC (Proteus morgani): > 200 µg/mL
MIC [5]: > 2000 µg/mL
MIC [6]: > 200 µg/mL
MIC (Escherichia coli [7]): > 200 µg/mL
MIC (Citrobacter diversus): > 200 µg/mL
MIC (Klebsiella pneumoniae): > 200 µg/mL
MIC (Enterobacter cloacae): > 200 µg/mL

Structure (SMILES): CC1C(O)C2CC(=O)N2C1C(=O)OCOC(=O)C(C)(C)C (stereo not drawn) [H H POM CH3 H OH I, Pivaloyloxymethyl 1-Hydroxy-2-methylcarbapenam-3-carboxylate]
MIC (Pseudomonas aeruginosa): > 200 µg/mL
MIC (Serratia marcescens): > 200 µg/mL
zone of inhibition at 25 µg/disc [1]: 0 mm
zone of inhibition at 25 µg/disc (Bacillus subtilis): 0 mm
zone of inhibition at 25 µg/disc (Staphylococcus aureus [3]): 0 mm
MIC (Staphylococcus aureus [4]): > 200 µg/mL
MIC (Proteus morgani): > 200 µg/mL
MIC [5]: > 200 µg/mL
MIC [6]: > 200 µg/mL
MIC (Escherichia coli [7]): > 200 µg/mL
MIC (Citrobacter diversus): > 200 µg/mL
MIC (Klebsiella pneumoniae): > 200 µg/mL
MIC (Enterobacter cloacae): > 200 µg/mL

Continued, in another order:

MIC (Pseudomonas aeruginosa): > 200 µg/mL
MIC (Serratia marcescens): > 200 µg/mL
MIC (Staphylococcus aureus [4]): 50 µg/mL
MIC (Proteus morgani): 50 µg/mL
MIC [5]: 200 µg/mL
MIC [6]: > 200 µg/mL
MIC (Escherichia coli [7]): 100 µg/mL
MIC (Citrobacter diversus): > 200 µg/mL
MIC (Klebsiella pneumoniae): > 200 µg/mL
MIC (Enterobacter cloacae): 50 µg/mL
Structure (SMILES): CCN1CCN(C(=O)N[C@@H](C(=O)NC2C(=O)N3C(C(=O)O)C(C)C(O)C23)c2ccccc2)C(=O)C1=O (stereo partly drawn) [EPA H H CH3 H OH I, Sodium 1-Hydroxy-2-methyl-6-[2-phenyl-2-(4-ethyl-2,3-dioxopiperazine-1-carboxamido)acetamido]carbapenam-3-carboxylate]
zone of inhibition at 25 µg/disc [1]: 9 mm
zone of inhibition at 25 µg/disc (Bacillus subtilis): 16 mm
zone of inhibition at 25 µg/disc (Escherichia coli [2]): 16 mm
zone of inhibition at 25 µg/disc (Staphylococcus aureus [3]): 15 mm
zone of inhibition at 25 µg/disc (Vibrio percolans): 25 mm

MIC (Pseudomonas aeruginosa): 200 µg/mL (≈ 325 µM)
MIC (Serratia marcescens): 25 µg/mL (≈ 40.6 µM)
MIC (Staphylococcus aureus [4]): 25 µg/mL (≈ 40.6 µM)
MIC (Proteus morgani): ≤ 0.39 µg/mL
MIC [5]: > 200 µg/mL
MIC [6]: > 200 µg/mL
MIC (Escherichia coli [7]): 6.25 µg/mL
MIC (Citrobacter diversus): 12.5 µg/mL (≈ 20.3 µM)
MIC (Klebsiella pneumoniae): 12.5 µg/mL (≈ 20.3 µM)
MIC (Enterobacter cloacae): 12.5 µg/mL (≈ 20.3 µM)
Structure (SMILES): CCN1CCN(C(=O)N[C@@H](C(=O)NC2C(=O)N3C(C(=O)OCOC(=O)C(C)(C)C)C(C)C(O)C23)c2ccccc2)C(=O)C1=O (stereo partly drawn) [EPA H POM CH3 H OH I, Pivaloyloxymethyl 1-Hydroxy-2-methyl-6-[2-phenyl-2-(4-ethyl-2,3-dioxopiperazine-1-carboxamido)acetamido]carbapenam-3-carboxylate]
zone of inhibition at 25 µg/disc [1]: 10 mm
zone of inhibition at 25 µg/disc (Bacillus subtilis): 17 mm
zone of inhibition at 25 µg/disc (Escherichia coli [2]): 20 mm
zone of inhibition at 25 µg/disc (Staphylococcus aureus [3]): 18 mm
zone of inhibition at 25 µg/disc (Vibrio percolans): 24 mm

MIC (Pseudomonas aeruginosa): > 200 µg/mL
MIC (Serratia marcescens): 100 µg/mL (≈ 163 µM)
MIC (Staphylococcus aureus [4]): 100 µg/mL (≈ 163 µM)
MIC (Proteus morgani): 25 µg/mL (≈ 40.7 µM)
MIC [5]: > 200 µg/mL
MIC [6]: > 200 µg/mL
MIC (Escherichia coli [7]): 100 µg/mL
MIC (Citrobacter diversus): 100 µg/mL (≈ 163 µM)
MIC (Klebsiella pneumoniae): 100 µg/mL (≈ 163 µM)
MIC (Enterobacter cloacae): 200 µg/mL (≈ 326 µM)
Structure (SMILES): CCN1CCN(C(=O)N[C@@H](C(=O)NC2C(=O)N3C(C(=O)OCOC(=O)C(C)(C)C)C(C)C(=O)C23)c2ccccc2)C(=O)C1=O (stereo partly drawn) [EPA H POM CH3 O I, Pivaloyloxymethyl 2-Methyl-1-oxo-6-[2-phenyl-2-(4-ethyl-2,3-dioxopiperazine-1-carboxamido)acetamido]carbapenam-3-carboxylate]
zone of inhibition at 25 µg/disc [1]: 12 mm
zone of inhibition at 25 µg/disc (Bacillus subtilis): 21 mm
zone of inhibition at 25 µg/disc (Escherichia coli [2]): 12 mm
zone of inhibition at 25 µg/disc (Staphylococcus aureus [3]): 12 mm
zone of inhibition at 25 µg/disc (Vibrio percolans): 21 mm
synergistic effect with ampicillin (Escherichia coli [7]; tested 1:1 with ampicillin): a
